Measurements reported in US9375448B2, “Method for isolating a chemotherapeutic agent resistant cancer cell with stem cell properties” (THE ROGOSIN INSTITUTE, INC., priority 2010, dated 2016).
Entries after “also recorded” stand apart in the source; their conditions may differ.

Legend:
RENCA cells [1] = assay: Histological examination of agarose coated agarose beads containing RENCA cells one week after drug exposure; assay type: cell-based; parameters: key to Effect: −: no change; +: complete loss of cell viability; +/−: an intermediate effect; details: for Effect: histology one week following exposure; for Destruction of cells within the encapsulated tumor colonies: beads treated with the drug
Experimental: Agarose coated, agarose beads containing RENCA cells were prepared in accordance with Smith, et al., Canc Res., 71(3): 716-724 (2011); and Smith et al., Canc. Res. 71(3): 725-735 (2011), the disclosures of which are incorporated by reference. The resulting beads were cultured in medium for 12 weeks.
Samples of beads were then exposed to a single, known anti-cancer drug, at one of three varying concentrations. The exposure involved incubation of the beads in the presence of the drug for a period of time based upon the known, half life of the drug.
Following incubation, the beads were washed, twice, and transferred to naïve culture media. Controls were also prepared, which included untreated beads, as well as beads exposed to whatever vehicle was used to solubilize the drug.
Histological examination of the beads was undertaken one week following exposure to the drug. […]

RENCA cells [2] = assay: 18 week culture of drug treated RENCA beads, sectioned and stained to count cell nuclei, normalized to DMSO treated beads; assay type: cell-based; details: for beads that developed 1 or 2 large colonies: week 18
Experimental: The Paclitaxel and Docetaxel treated beads were cultured, under standard conditions, as were control beads which had been exposed to DMSO, which was the vehicle for delivery of the two drugs. The culture period was 18 weeks.
Approximately 10% of the beads developed 1 or 2 large colonies, at week 18.
In order to quantify the cell loss, representative beads from the DMSO control, Paclitaxel and Docetaxel groups were sectioned and stained, using standard methods, in order to permit counting of cell nuclei. Results were normalized to the DMSO treated beads.
In the case of treatment with Paclitaxel, there was an initial loss over weeks 1-3, of about 25% of cells per colony. The majority of colonies did contain viable cells. […] In the case of docetaxel treated beads, these lost viable cells very rapidly, such that only 1-2 viable cells were present in the colonies 6 weeks after treatment.

CC(=O)O[C@H]1C(=O)[C@@]2(C)[C@H]([C@H](OC(=O)c3ccccc3)[C@]3(O)C[C@H](OC(=O)[C@H](O)[C@@H](NC(=O)c4ccccc4)c4ccccc4)C(C)=C1C3(C)C)[C@]1(OC(C)=O)CO[C@@H]1C[C@@H]2O [Paclitaxel]
Effect (RENCA cells [1]; Treatment time 1 day, dose 0.35 μg/ml): − | Effect (RENCA cells [1]; Treatment time 1 day, dose 3.5 μg/ml): +/− | Effect (RENCA cells [1]; Treatment time 1 day, dose 35 μg/ml): +/− | Destruction of cells within the encapsulated tumor colonies (RENCA cells [1]): did not destroy all of the cells | cell number at week 18 (RENCA cells [2]; 3.5 μg/ml, 18 weeks culture): return to the pre-treatment number of cells; also recorded: equivalent to the control DMSO beads | cell number in beads over time after treatment (RENCA cells [2]; 3.5 μg/ml, first 6 weeks post-treatment): loss of cells for 6 weeks | initial loss of cells per colony (RENCA cells [2]; weeks 1-3 after treatment, normalized to DMSO treated beads): about 25%

CN(Cc1cnc2nc(N)nc(N)c2n1)c1ccc(C(=O)N[C@@H](CCC(=O)O)C(=O)O)cc1 [Methotrexate]
Effect (RENCA cells [1]; Treatment time 1 day, dose 0.45 μg/ml): − | Effect (RENCA cells [1]; Treatment time 1 day, dose 4.5 μg/ml): − | Effect (RENCA cells [1]; Treatment time 1 day, dose 45 μg/ml): −

CC(=O)O[C@@]12CO[C@@H]1C[C@H](O)[C@@]1(C)C(=O)[C@H](O)C3=C(C)[C@@H](OC(=O)[C@H](O)[C@@H](NC(=O)OC(C)(C)C)c4ccccc4)C[C@@](O)([C@@H](OC(=O)c4ccccc4)[C@H]21)C3(C)C [Docetaxel]
Effect (RENCA cells [1]; Treatment time 1 day, dose 0.5 μg/ml): +/− | Effect (RENCA cells [1]; Treatment time 1 day, dose 5 μg/ml): +/− | Effect (RENCA cells [1]; Treatment time 1 day, dose 50 μg/ml): +/− | Destruction of cells within the encapsulated tumor colonies (RENCA cells [1]): did not destroy all of the cells | viable cells per colony (RENCA cells [2]; 5 μg/ml, 6 weeks post-treatment): 1-2 cells per colony | beads that developed 1 or 2 large colonies (RENCA cells [2]; 5 μg/ml): Approximately 10% | beads that developed 1 or 2 large colonies (RENCA cells [2]; 5 μg/ml, listed as docetaxel): about 10%

N.N.[Cl][Pt][Cl] [Cisplatin]
Effect (RENCA cells [1]; Treatment time 1 hr, dose 60 ng/ml): − | Effect (RENCA cells [1]; Treatment time 1 hr, dose 600 ng/ml): − | Effect (RENCA cells [1]; Treatment time 1 hr, dose 6000 ng/ml): −

COc1cccc2c1C(=O)c1c(O)c3c(c(O)c1C2=O)C[C@@](O)(C(=O)CO)C[C@@H]3O[C@H]1C[C@H](N)[C@H](O)[C@H](C)O1 [Doxorubicin]
Effect (RENCA cells [1]; Treatment time 2 days, dose 5 μg/ml): + | Effect (RENCA cells [1]; Treatment time 2 days, dose 50 μg/ml): + | Effect (RENCA cells [1]; Treatment time 2 days, dose 100 μg/ml): +

CCC1=C[C@@H]2CN(C1)Cc1c([nH]c3ccccc13)[C@@](C(=O)OC)(c1cc3c(cc1OC)N(C)[C@H]1[C@@](O)(C(=O)OC)[C@H](OC(C)=O)[C@]4(CC)C=CCN5CC[C@]31[C@@H]54)C2 [Vinorelbine]
Effect (RENCA cells [1]; Treatment time 2 days, dose 0.1 μg/ml): − | Effect (RENCA cells [1]; Treatment time 2 days, dose 1 μg/ml): +/− | Effect (RENCA cells [1]; Treatment time 2 days, dose 10 μg/ml): +/−

N.N.O=C([O-])C1(C(=O)[O-])CCC1.[Pt+2] [Carboplatin]
Effect (RENCA cells [1]; Treatment time 5 days, dose 25 μg/ml): +/− | Effect (RENCA cells [1]; Treatment time 5 days, dose 250 μg/ml): + | Effect (RENCA cells [1]; Treatment time 5 days, dose 2500 μg/ml): +
